Source: patent US6372781B1, “Compounds for treating gastroduodenal diseases” (Pfizer Inc., priority 1994, dated 2002)

Assays:
[1] = system: Helicobacter pylori; experiment: in vitro screen against Helicobacter pylori (agar dilution / microdilution broth MIC); format: cell-based
[2] = system: Bacillus cereus; settings: against Bacillus cereus; cited from earlier work
[3] = system: Bacillus subtilis; settings: against Bacillus subtilis; cited from earlier work
[4] = system: Escherichia coli; settings: against Escherichia coli; cited from earlier work
[5] = system: Aspergillus niger; settings: against Aspergillus niger; cited from earlier work
[6] = system: Botrytis cinerea; settings: against Botrytis cinerea; cited from earlier work
[7] = system: Cladosporium cucumerinum; settings: against Cladosporium cucumerinum; cited from earlier work
[8] = system: Ophiostoma ulmi; settings: against Ophiostoma ulmi; cited from earlier work
[9] = system: Saccharomyces cerevisiae; settings: against Saccharomyces cerevisiae; cited from earlier work
[10] = system: Helicobacter pylori; settings: cited from earlier work

Row | Compound | helicobactericidal activity (kills Helicobacter pylori) [1] | bacteriostatic activity [2] | bacteriostatic activity [3] | bacteriostatic activity [4] | antifungal activity [5] | antifungal activity [6] | antifungal activity [7] | antifungal activity [8] | antifungal activity [9] | helicobactericidal activity [10]
1 | COc1cc(O)cc2c1C(=O)OC2CCCCCC1CCCC2(CCC(C)O2)O1 (stereo not shown) [spirolaxine] | potent helicobactericidal | weak bacteriostatic activity | weak bacteriostatic activity | weak bacteriostatic activity | no antifungal activity | no antifungal activity | no antifungal activity | no antifungal activity | no antifungal activity | –
2 | colloidal bismuth subcitrate | – | – | – | – | – | – | – | – | – | helicobactericidal
